The values that follow come from patent US9765115B2, “Inhibitors of metastasis, methods of generating such inhibitors and their therapeutic applications” (Board of Supervisors of Louisiana State University acting …, priority 2011, dated 2017).

“Also recorded” adds a separate entry of the source.

Common to all, as to type: cell-based
The test system of one assay is PC-3V cells. Put plainly: Paracellular permeability (PCP), TRITC-dextran diffusion. The following applies: 50 nM CT. The procedure:
(§1) For PCP measurements, cells were grown to confluence on Transwell filters. Tetra methyl rhodamine-dextran (1 mg/ml, ˜4 kDa, Sigma) was added to the upper chamber. Fluorescence of the lower chamber medium was measured in Modulus Microplate Reader (Turner Biosystems) at various time intervals.
(§2) TJs form a barrier that regulates the movement of ions, solutes and growth factors between cells. To detect whether CT affects the barrier, the diffusion of fluorophore-conjugated dextran was measured across polarized PC cell line monolayers, a procedure called paracellular permeability (PCP). FIG. 2B depicts CTR-C PDZ-binding motif mutation and tight junction (TJ) disruption as measured using PCP. Polarized PC-3V, PC-3-CTRwt and PC-3CTRΔESS cells were treated with or without 50 nM CT, and PCP determined by diffusion of ˜4 kDa TRITC-conjugated dextran from the upper to the lower chamber in one hour. The results are expressed as μg/ml/hour of TRITC-Dextran diffused ±SEM (n=6; *p<0.05 (−CT v +CT, One way ANOVA and Newman-Keul's test)). […] In contrast, CTRΔESS expression had little effect on PCP in the presence or absence of CT.

The subject of the next assay is PC-3CTRΔESS cells. The description is as above. The method, then: as §1, §2
The test system of assay [1] is TCF/LEF promoter activity in PC-3 cells. Put plainly: TCF/LEF luciferase reporter assay (pGL3-OT/pGL3-OF). The following applies: 50 nM CT. The method, then:
FIG. 28 depicts effect of CT on TCF/LEF promoter activity in PC-3 cells with various compounds added with CT. Cells were seeded into 6-well plates and transfected with the pGL3-OT luciferase/pRL-tK plasmids or pGL3-OF-luciferase/pRL-TK plasmids. The cells were then incubated in complete medium for 48 h, after which they were serum-starved for 16 h. The cells were then treated with CT and/or PMH compounds, and the cell lysates analyzed for luciferase activity. The results are expressed as relative light units (RLU) after normalization with Renilla luciferase activity. The experiment was repeated three separate times, and results expressed as means±S.E.M.
Certain hydantoin-like molecules isolated from sea sponge have been identified that could inhibit prostate cell metastasis (Shah et al., 2009; Mudit et al., 2011). Disruption of junctional complex stabilizes intracellular β-catenin, leading to its translocation in the nucleus, where it can bind to its partner LEF-1 (lymphocyte enhancer binding factor-1) to transactivate target genes. The transcription of TCF/LEF genes can be quantitated by using luciferase-based reporter plasmids, pGL3-OT and pGL3-OF, the improved version of the Topflash and Fopflash vectors (Shah et al., 2009). This assay can be used to comparatively evaluate junction disrupting activity of multiple compounds in a single assay. […] The two compounds, MRM-6 and MRM-4, derivatives of PMH whose structures are shown below, were obtained from Dr. K. A. El Sayed.
For orientation: In a reporter assay the amount or activity of a reporter protein is the signal.

The next assay relates to PC-3CTRwt cells. Put plainly: Transepithelial electric resistance (TER). The method, then: Cells were plated on Transwell filters (0.4 μm pore size) and grown to confluency in complete medium (RPMI1640 containing 10% fetal bovine serum, 20 mM HEPES and antibiotics). TER of the cultures (in duplicate wells) was measured at several time intervals with EVOM volt-ohm meter as previously described (Shah et al, 2009). The readings were corrected for blank (TER values from the filter in bathing medium). The integrity and cell density of monolayers were carefully monitored.
To examine the effect of calcitonin (CT) on tight junctions (TJs), the transepithelial electric resistance (TER) of polarized PC-3 cells expressing either the vector (PC-3V), CTRwt or CTRΔESS was monitored for 8 hours after CT stimulation (FIG. 2A). Polarized PC-3V, PC-3 CTRwt and PC-3 CTR-ΔESS cells were serum-starved for 4 hours, then treated with or without 50 nM CT. TER was measured with EVOM volt-ohm meter, and results expressed as Ωcm^2±SEM (n=6). […] Since PC-3 cells secrete CT, the expression of CTRwt may have activated CT-CTR axis causing almost 40% reduction of TER in PC-3CTRwt cells.
The effect of CT on TJ functionality was tested by monitoring TER of PC-3CTRwt monolayers. […] Polarized PC-3-CTRwt cells were serum-starved for 4 hours, then treated with or without 50 nM CT. TER was measured with EVOM volt-ohm meter. The results are expressed as TER ±SEM (Ωcm^2±SEM; n=6). […] PCP was determined by diffusion of ˜4 kDa TRITC-conjugated dextran from the upper to the lower chamber in one hour. The results are expressed as μg/ml/hour of TRITC-Dextran diffused ±SEM (n=6; *p<0.05 (−CT v +CT, One way ANOVA and Newman-Keul's test)).
To understand the significance of CT-induced, PKA-dependent disassembly of TJs in PC cell adhesion and invasion, the action of CT was examined on TER, PCP, cell adhesion and invasion in PC-3CTRwt cells in the presence/absence of mPKI. […] Similarly, mPKI abrogated the actions of CT on PCP and invasion (FIGS. 20B and 20C respectively). Next, the adhesion of PC-3CTRwt cells was examined on culture dishes.

calcitonin [CT]: the PCP result in the assay with PC-3V cells was “did not alter it”. Also, the “PCP at multiple CT concentrations” value in the assay on PC-3CTRΔESS cells (all tested concentrations) is recorded as “did not alter PCP”. Also, the PCP entry in the assay on PC-3CTRΔESS cells (presence or absence of 50 nM CT) was “little effect”. Further, the “increase in luciferase activity (RLU)” value in assay [1] is given as “over 50 fold”. Also, in the assay on PC-3CTRwt cells (50 nM CT), the TER entry is “decreased TER even further; also recorded: relatively rapid decline in TER; also recorded: steady, remarkable decline”; the “time at which decline in TER became apparent” value is on record as no more than 10 min; the “time to remarkable drop in TER” value is listed as no more than 30 min. Besides, the “TER at multiple CT concentrations” value in the assay on PC-3CTRwt cells (CT 10 and 100 nM) was “significant decrease”.
